Molecules are shown by their SMILES. ≈ marks a conversion by molar mass, not a printed value.

One may read the IC50 as the midpoint of a concentration-inhibition curve. A high value points to a need for much substance.

Series [1] can be described thus: ABTS assay, antioxidant capacity (cell free in vitro test). In kind it is biochemical. Particulars: ABTS discolouration measured photometrically at 734 nm; 96-well plates, 5 concentrations. As to the method: The antioxidant capacity of 3-(4-hydroxy-3-methoxyphenyl)-1-(4-hydroxyphenyl)-1-propanone of formula (I) disclosed here was evaluated with the ABTS assay, a cell free in vitro test. The assay principle bases on the chemical reduction being accompanied by discolouration of the green coloured cationic radical 2,2′-Azinobis(3-ethylbenzothiazoline 6-sulfonic acid) (ABTS^+) by antioxidants. The grade of discolouration can be measured photometrically at 734 nm. The compound of formula (I) as well as standard antioxidants like Trolox, a water soluble alpha-tocopherol analog and green tea extract were tested on 96-well microtiter plates at 5 concentrations. Each concentration was tested in double in two independent experiments. IC50 values for the compound of formula (I) as well as for the comparative examples are depicted in table 1.
Therefore, the compound of formula (I) is a highly suitable new product either to protect biological systems from damage caused by free radicals of different type and origin or to extend the shelf life of products comprising highly unstable, easily oxidising molecules.

A further series in a line: Stability studies. In kind it is physicochemical. The note with it: in contrast to common antioxidants like Trolox, alpha-tocopherol or green tea extract.

`COc1cc(CCC(=O)c2ccc(O)cc2)ccc1O` [3-(4-hydroxy-3-methoxyphenyl)-1-(4-hydroxyphenyl)-1-propanone]: the half-maximal inhibitory concentration (IC50) in series [1] came out at 5 µg/mL (≈ 18.4 µM). Besides, the stability entry in “Stability studies” is “highly stable”. Molecule `Cc1c(C)c2c(c(C)c1O)CCC(C)(C(=O)O)O2` (stereo not drawn) [Trolox, 6-hydroxy-2,5,7,8-tetramethylchroman-2-carboxylic acid, reference compound] gave an IC50 in series [1] of 6 µg/mL (≈ 24 µM).
